Publication PMC7733455, “A novel multistage antiplasmodial inhibitor targeting Plasmodium falciparum histone deacetylase 1” (Cell Discovery, 2020)
Several values for one entry are separate records, joined by “and”; a condition that tells them apart may be missing. Equal entries are not always repeated. Where two headings read alike, the source gives them in different places.

Experiments:
P. falciparum GB4 = test: 3-day SYBR Green I GIA, strain GB4; type: cell-based; conditions: Plasmodium falciparum; GB4 resistant to chloroquine; read-out: Resistant isolates EC50, GB4
Procedure: (§1) A 3-day SYBR Green I inhibition EC50 assay was performed as described previously. Briefly, highly synchronized ring-stage parasites by 5% sorbitol (1% parasitemia and 2% hematocrit) were incubated in a 96-well plate with compounds in a total volume of 200 μL. […] The parasites were cultured for 72 h before SYBR Green I staining as described above. The EC50 was calculated by GraphPad Prism. DHA was used as a positive control, and the final concentration of DMSO was 1%.

[1] = Liver microsome metabolism assay, mouse; type: in vitro ADME; conditions: for half-life at 1 µM: mouse, liver microsomes
Procedure: (§2) Liver microsomes (0.5 mg/mL) were purchased from Corning. Ketanserin was selected as a positive control. The tested compounds were first dissolved in DMSO to a concentration of 10 mM and then diluted to 0.5 mM with acetonitrile. Liver microsome buffer was used to dilute the compounds to a working concentration of 1.5 µM, 30 µL of which was mixed with 15 µL of 6 mM NADPH at 37 °C. At 0, 5, 15, 30, and 45 min after incubation, 135 µL of acetonitrile was added to quench the reaction. The mixture was shaken on a vortex mixer (IKA, MTS 2/4) for 10 min at 600 rpm/min and then centrifuged at 5594× g for 15 min (Thermo Multifuge×3R). The supernatant was diluted 1:1 into distilled water, and analyzed by LC-MS/MS.

[2] = In vitro cytotoxicity analysis (CellTiter-Glo), HepG2; conditions: human, HepG2 cells
Procedure: (§3) In all, 1% DMSO was used as a negative control. The inhibition of each drug was normalized to that of the DMSO control. EC50 was calculated by GraphPad Prism. Three independent assays with two technical replicates each time were conducted in this experiment.

HepG2 cells = test: as above
Procedure: as §3

3D7^HDAC1-TY1 = test: Sensitivity of transgenic parasites to JX21108, 3D7^HDAC1-TY1; type: cell-based; conditions: Plasmodium falciparum, 3D7, 4 h, read-out: EC50 for 3D7^HDAC1-TY1
Procedure: (§4) Highly synchronized schizont-stage parasites were prepared and treated as described above, with adjustments. […] After washing, parasites were cultured in new CM for another 68 h. Parasite growth was monitored by SYBR Green I staining, as described above. The EC50 was calculated by GraphPad Prism.

[3] = system: P. falciparum NF54 stage IV gametocytes; test: In vitro gametocyte inhibition assay, stage IV; type: cell-based, Plasmodium falciparum; conditions: NF54 luciferase line, 48 h exposure
Procedure: To test the activities of JX21108 against different gametocyte stages, the P. falciparum producer NF54^p230p-luc was utilized, as described previously. […] Luciferase intensity based on luciferase expression was detected as described above. The EC50 was calculated by GraphPad Prism. DMSO (1%) was used as a negative control.

P. falciparum CP286 = test: 3-day SYBR Green I GIA, strain CP286; type: cell-based; conditions: Plasmodium falciparum; CP286 resistant to pyrimethamine and chloroquine; read-out: Resistant isolates EC50, CP286
Procedure: as §1

P. falciparum Dd2 = test: 3-day SYBR Green I GIA, multidrug-resistant strain Dd2; type: cell-based, Plasmodium falciparum; conditions: Plasmodium falciparum, 72 h; 3-day SYBR Green I GIA, multidrug-resistant strain Dd2; read-out: Antiplasmodial activity EC50, Dd2
Outline: (§5)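 Sorbitol-synchronized ring-stage parasites at 1% parasitemia and 2% hematocrit, cultured 72 h with compounds at 1% DMSO final. Growth read by SYBR Green I staining. EC50 from curve fitting.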

hHDAC1 = molecular target: T1, hHDAC1 (Homo sapiens, UniProt Q13547); test: Human HDAC inhibition assay, hHDAC1; type: biochemical; conditions: performed only once; read-out: Inhibitory Activity IC50, hHDAC1
T1 construct: purchased BPS Bioscience 50058
Procedure: (§6) SAHA and suramin were used as positive controls. The tested compounds were dissolved into 20 mM stock in 100% DMSO. […] Ten microliters of trypsin and Ac-peptide substrate/Tris buffer solution were added to start the reaction, followed by a 1-h incubation at room temperature for HDACs 1–3 and 6. Ten microliters of Ac-peptide substrate/Tris buffer solution was added to start the reaction, followed by a 4-h incubation at room temperature and a further 2-h incubation with trypsin solution for HDAC8 and Sirt 2. […] This experiment was performed only once.

P. falciparum 3D7 [4] = test: Ring-stage survival assay (RSA), sensitive strain 3D7; type: cell-based, Plasmodium falciparum; conditions: 700 nM
3D7^HDA1-glmS = test: Sensitivity of transgenic parasites to JX21108, 3D7^HDA1-glmS; type: cell-based; conditions: Plasmodium falciparum, 3D7, 4 h, read-out: EC50 for 3D7^HDA1-glmS
Procedure: as §4

P. falciparum 3D7 [5] = test: 3-day SYBR Green I growth inhibition assay (GIA), strain 3D7; type: cell-based, Plasmodium falciparum; conditions: 3-day SYBR Green I GIA, drug-sensitive strain 3D7, read-out: Antiplasmodial activity EC50, 3D7
Outline: as §5

[6] = Liver microsome metabolism assay, human; type: in vitro ADME
Procedure: as §2

hHDAC3 = molecular target: T2, hHDAC3 (Homo sapiens, UniProt O15379); test: Human HDAC inhibition assay, hHDAC3; type: biochemical; conditions: performed only once; read-out: Inhibitory Activity IC50, hHDAC3
T2 construct: purchased BPS Bioscience 50003
Procedure: as §6

[7] = system: parasite histone H3 acetylation; test: Western blot of histone H3 acetylation in parasites; type: cell-based, Plasmodium falciparum; conditions: 4 h treatment of asynchronous 3D7; quisinostat/JX21108 5 and 20 nM, SAHA 500 nM
Procedure: Then the parasite samples were harvested and treated with 0.15% saponin to remove the RBC proteins and sonicated in 1% NP40 lysis buffer. After centrifugation at 12,000× g for 15 min, the supernatant was resuspended in a routine SDS loading buffer. Parasite proteins were separated by 10% SDS-PAGE and transferred onto PVDF membranes (Millipore). […] A2348) followed by a secondary antibody conjugated with HRP (Jackson Immuno Research Laboratories). The chemiluminescent HRP substrate Immobilon Western Kit (Millipore) was used for signal detection.

[8] = In vitro cytotoxicity analysis (CellTiter-Glo), 293T; conditions: human, 293T cells, Cytotoxicity EC50, 293T, 72 h, CellTiter-Glo
Procedure: as §3

293T cells = test: as above
Procedure: as §3

T2 sequence (O15379 whole entry): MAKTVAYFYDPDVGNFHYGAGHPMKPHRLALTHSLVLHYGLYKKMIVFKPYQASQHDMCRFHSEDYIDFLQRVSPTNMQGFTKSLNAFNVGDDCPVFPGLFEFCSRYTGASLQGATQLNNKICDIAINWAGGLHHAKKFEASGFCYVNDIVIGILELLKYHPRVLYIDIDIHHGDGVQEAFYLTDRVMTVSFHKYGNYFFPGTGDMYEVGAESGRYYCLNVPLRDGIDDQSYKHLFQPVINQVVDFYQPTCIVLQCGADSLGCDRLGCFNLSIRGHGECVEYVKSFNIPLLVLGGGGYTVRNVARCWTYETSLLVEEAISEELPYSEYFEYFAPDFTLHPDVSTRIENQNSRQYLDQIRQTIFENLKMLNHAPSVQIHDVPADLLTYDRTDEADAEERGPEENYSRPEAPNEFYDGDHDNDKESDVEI
T2 sequence (Q9Y618 395-489 partner limits assumed): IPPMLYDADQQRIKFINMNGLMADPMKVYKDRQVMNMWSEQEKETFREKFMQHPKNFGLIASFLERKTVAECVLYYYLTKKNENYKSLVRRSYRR
T1 sequence (Q13547 whole entry): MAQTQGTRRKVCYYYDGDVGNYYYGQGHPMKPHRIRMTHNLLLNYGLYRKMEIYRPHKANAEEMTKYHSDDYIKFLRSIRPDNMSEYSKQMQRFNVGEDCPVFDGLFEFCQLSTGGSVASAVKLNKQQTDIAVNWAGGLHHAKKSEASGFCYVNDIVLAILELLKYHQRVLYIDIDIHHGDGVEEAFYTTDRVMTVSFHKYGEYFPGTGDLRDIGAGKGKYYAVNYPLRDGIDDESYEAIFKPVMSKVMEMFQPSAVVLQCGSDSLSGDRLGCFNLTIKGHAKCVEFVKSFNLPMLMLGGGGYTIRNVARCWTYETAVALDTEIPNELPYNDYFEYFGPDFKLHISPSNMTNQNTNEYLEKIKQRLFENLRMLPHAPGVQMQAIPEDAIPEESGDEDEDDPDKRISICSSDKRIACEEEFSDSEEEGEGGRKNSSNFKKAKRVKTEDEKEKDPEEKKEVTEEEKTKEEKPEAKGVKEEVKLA

Q: Which results are given for `Cl.Cn1cc(CN2CCC3(CCN(c4ncc(C(=O)NO)cn4)C3)C2)c2cc(C#N)ccc21` (stereo not shown) [JX21108]?
A: EC50 (P. falciparum GB4): 2.4 ± 0.6 nM; CLint scaled at 1 µM ([1]; mouse liver microsomes, read-out: CL in liver microsomes): 7.32 mL/min/kg; half-life at 1 µM ([1]; read-out: T1/2 in liver microsomes): 12.4 h; half-life at 1 µM ([1]; read-out: half-life in mouse liver microsomes (converted)): 12.4 h; EC50 at 72 h [2]: 3820 ± 145 nM; Selectivity index for HepG2 (EC50 HepG2/EC50 3D7) (HepG2 cells): ~ 1060 and 1069 and 1060; EC50 (3D7^HDAC1-TY1): 114 ± 26.5 nM; EC50 [3]: 5.9 ± 1.97 nM; EC50 ([3]; Plasmodium falciparum, NF54, 48 h): 5.85 ± 1.97 nM; EC50 (P. falciparum CP286): 7 ± 0.6 nM; EC50 (P. falciparum Dd2): 4 nM; IC50 (hHDAC1): 1.8 nM; RSA effect on ring-stage parasites of 3D7 (P. falciparum 3D7 [4]): efficiently killed the ring-stage parasites; EC50 (3D7^HDA1-glmS): 210 ± 25 nM; EC50 (P. falciparum 3D7 [5]): 3.57 ± 0.06 nM; EC50 (P. falciparum 3D7 [5]; Plasmodium falciparum, 3D7, 72 h): 3.6 nM; CL in liver microsomes [6]: 3.34 mL/min/kg; half-life at 1 µM ([6]; human liver microsomes, read-out: T1/2 in liver microsomes): 8.68 h; IC50 (hHDAC3): 19 nM; pan-acetylation levels of parasite histone H3 [7]: greatly increased the pan-acetylation levels of parasite histone H3; EC50 at 72 h [8]: 1190 ± 233 nM; Selectivity index for 293T (EC50 293T/EC50 3D7) (293T cells): ~ 331 and 334 and 331
